Where “and” joins values, the source holds several entries; their conditions need not be identical. Identical values can stand only once.
Key:
NR1-1b/NR2B NMDA subtype = molecular target: T1, NR1-1b/NR2B NMDA subtype (Homo sapiens, UniProt Q05586+Q13224); experiment: cell-based
T1 construct: expressed in transfected cells; host or cells: oocytes

[1] = tested on: Frings audiogenic seizure-susceptible mice; settings: mouse, in vivo
CF #1 Mice = tested on: CF #1 Mice; parameters: TD50: unit not given beside the values; settings: mouse, in vivo
[2] = tested on: young (<2 weeks old) mice; format: in vivo; settings: mouse, in vivo
[3] = tested on: young (<2 weeks old) mice; format: in vivo; settings: mouse, in vivo; remark: listed apart in the source
[4] = tested on: young (<2 weeks old) mice; format: in vivo; settings: mouse, in vivo; remark: listed apart in the source
CF No. 1 mice = settings: mouse, in vivo

T1 sequence (Q13224 27-1484, other chains not shown): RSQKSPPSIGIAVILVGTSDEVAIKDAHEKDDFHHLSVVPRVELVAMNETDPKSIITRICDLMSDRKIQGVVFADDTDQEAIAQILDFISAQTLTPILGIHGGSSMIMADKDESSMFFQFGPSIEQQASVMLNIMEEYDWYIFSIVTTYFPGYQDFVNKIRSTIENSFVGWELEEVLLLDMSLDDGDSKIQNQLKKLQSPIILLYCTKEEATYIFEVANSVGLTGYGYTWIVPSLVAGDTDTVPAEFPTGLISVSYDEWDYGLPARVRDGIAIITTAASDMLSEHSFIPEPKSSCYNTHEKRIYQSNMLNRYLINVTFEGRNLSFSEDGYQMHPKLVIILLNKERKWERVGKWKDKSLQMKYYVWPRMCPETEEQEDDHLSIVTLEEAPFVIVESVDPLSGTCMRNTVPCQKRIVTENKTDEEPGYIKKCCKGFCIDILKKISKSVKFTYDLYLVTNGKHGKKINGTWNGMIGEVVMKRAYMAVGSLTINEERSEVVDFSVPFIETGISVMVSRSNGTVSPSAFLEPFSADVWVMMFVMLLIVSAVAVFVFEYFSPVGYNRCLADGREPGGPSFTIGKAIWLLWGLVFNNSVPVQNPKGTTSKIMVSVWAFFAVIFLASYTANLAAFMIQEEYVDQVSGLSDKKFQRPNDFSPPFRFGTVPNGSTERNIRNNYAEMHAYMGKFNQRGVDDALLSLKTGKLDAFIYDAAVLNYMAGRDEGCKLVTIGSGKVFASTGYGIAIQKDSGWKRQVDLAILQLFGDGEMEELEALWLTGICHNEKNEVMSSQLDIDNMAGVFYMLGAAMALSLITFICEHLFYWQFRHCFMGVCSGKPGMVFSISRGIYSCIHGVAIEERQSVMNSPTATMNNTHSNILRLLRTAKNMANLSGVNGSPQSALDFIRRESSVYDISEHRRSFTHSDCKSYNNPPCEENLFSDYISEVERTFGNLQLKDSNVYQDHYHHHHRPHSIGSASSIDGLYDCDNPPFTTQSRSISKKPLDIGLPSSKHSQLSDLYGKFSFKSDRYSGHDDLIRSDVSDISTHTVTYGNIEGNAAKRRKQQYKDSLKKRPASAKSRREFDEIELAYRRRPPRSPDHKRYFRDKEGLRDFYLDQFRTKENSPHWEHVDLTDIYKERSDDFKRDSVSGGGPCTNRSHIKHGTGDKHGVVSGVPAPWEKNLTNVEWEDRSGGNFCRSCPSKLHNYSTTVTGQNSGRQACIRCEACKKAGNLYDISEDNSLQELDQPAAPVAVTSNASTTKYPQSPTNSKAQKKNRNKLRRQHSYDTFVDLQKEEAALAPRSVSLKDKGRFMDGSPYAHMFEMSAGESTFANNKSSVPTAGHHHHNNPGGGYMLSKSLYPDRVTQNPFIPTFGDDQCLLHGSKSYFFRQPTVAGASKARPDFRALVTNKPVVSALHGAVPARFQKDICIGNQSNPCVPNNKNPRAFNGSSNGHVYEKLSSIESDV

Compound	Catalepsy Test, positive mice/tested [2]	Sleepy Test, positive mice/tested [3]	Righting Reflex, mice that lost reflex/tested [4]	anticonvulsant activity (CF No. 1 mice)	further results
CC[C@H](C)[C@H](NC(=O)[C@H](CC(N)=O)NC(=O)[C@H](CC(C(=O)O)C(=O)O)NC(=O)[C@H](CCCNC(=N)N)NC(=O)[C@H](C)NC(=O)[C@H](CC(C)C)NC(=O)[C@H](CC(C(=O)O)C(=O)O)NC(=O)[C@H](C)NC(=O)[C@H](C)NC(=O)[C@H](CCSC)NC(=O)[C@H](CCCCN)NC(=O)[C@H](C)NC(=O)[C@@H](NC(=O)[C@H](CC(C(=O)O)C(=O)O)NC(=O)[C@H](CC(C(=O)O)C(=O)O)NC(=O)[C@H](CCC(=O)O)NC(=O)CN)C(C)C)C(=O)N[C@@H](C)C(=O)N[C@@H](CCCCN)C(=O)NCC(=O)N[C@H]1CSSC[C@@H](C(=O)N[C@@H](Cc2ccc(O)cc2)C(=O)N2CCC[C@H]2C(=O)O)NC(=O)[C@H](CC(N)=O)NC(=O)[C@H](C(C)C)NC(=O)[C@H](CCCCN)NC1=O [Con R, Conantokin R]	–	–	–	–	Ki (NR1-1b/NR2B NMDA subtype): 140 nM; inhibition at 3 µM (NR1-1b/NR2B NMDA subtype; read-out: inhibition of the current produced in response to glutamate and glycine): ~95%; P.I. (TD50/ED50) [1]: 17; Protective Index, PI (TD50/ED50) [1]: 18; TD50 [1]: 0.228; protective index relative to that of valproic acid [1]: at least eight times better; P.I. (TD50/ED50) (CF #1 Mice): 3.6; TD50 (CF #1 Mice): ~ 0.300
Conantokin Oc [Con Oc]	0/3	2/3 and 0/3	0/3	–	–
Conantokin L [Con L]	4/4 and 3/4	4/4	2/4 and 3/4	anticonvulsant activity	–
Conantokin Ca2 [Con Ca2]	–	–	–	anticonvulsant activity	–
Conantokin Qu [Con Qu]	–	–	–	anticonvulsant activity	–
Conantokin Gm [Con Gm]	–	–	–	anticonvulsant activity	–

From patent US6277825A (priority 1999, dated 2001)
